Experimental data published in ChEMBL document CHEMBL3046848, “Synthesis and biological evaluation of novel series of thieno[2,3-d]pyrimidine derivatives as anticancer and antimicrobial agents” (2013).
In brackets after ≈: the same amount, converted by molar mass.

How the values were obtained:
Assay type in all cases: functional
[1] = system: UACC-62; test: Anticancer activity against Homo sapiens (human) UACC62 cells after 48 hr by SRB assay; conditions: UACC-62, 48 h
[2] = system: SK-MEL-28; test: Anticancer activity against Homo sapiens (human) SK-MEL-28 cells after 48 hr by SRB assay; conditions: SK-MEL-28, 48 h
[3] = system: M14; test: Anticancer activity against Homo sapiens (human) M14 cells after 48 hr by SRB assay; conditions: M14, 48 h
[4] = system: Malme-3M; test: Anticancer activity against Homo sapiens (human) MALME-3M cells after 48 hr by SRB assay
[5] = system: CAKI-1; test: Growth inhibition of Homo sapiens (human) CAKI-1 cells at 10 uM after 48 hr by SRB assay; conditions: CAKI-1, 48 h, read-out: GI
[6] = system: ACHN; test: Growth inhibition of Homo sapiens (human) ACHN cells at 10 uM after 48 hr by SRB assay; conditions: read-out: GI
[7] = system: 786-0; test: Growth inhibition of Homo sapiens (human) 786-0 cells at 10 uM after 48 hr by SRB assay; conditions: 786-0, 48 h, read-out: GI
[8] = system: MOLT-4; test: Growth inhibition of Homo sapiens (human) MOLT4 cells at 10 uM after 48 hr by SRB assay; conditions: MOLT-4, 48 h, read-out: GI
[9] = system: OVCAR-5; test: Growth inhibition of Homo sapiens (human) OVCAR5 cells at 10 uM after 48 hr by SRB assay; conditions: OVCAR-5, 48 h, read-out: GI
[10] = system: OVCAR-3; test: Growth inhibition of Homo sapiens (human) OVCAR3 cells at 10 uM after 48 hr by SRB assay; conditions: OVCAR-3, 48 h, read-out: GI
[11] = system: IGROV-1; test: Growth inhibition of Homo sapiens (human) IGROV1 cells at 10 uM after 48 hr by SRB assay; conditions: IGROV-1, 48 h, read-out: GI
[12] = system: NCI/ADR-RES; test: Growth inhibition of Homo sapiens (human) NCI/ADR-RES cells at 10 uM after 48 hr by SRB assay; conditions: read-out: GI
[13] = system: MDA-MB-231; test: Growth inhibition of Homo sapiens (human) MDA-MB-231/ATCC cells at 10 uM after 48 hr by SRB assay; conditions: MDA-MB-231, 48 h, read-out: GI
[14] = system: T47D; test: Anticancer activity against Homo sapiens (human) T47D cells after 48 hr by SRB assay
[15] = system: BT-549; test: Anticancer activity against Homo sapiens (human) BT549 cells after 48 hr by SRB assay; conditions: BT-549, 48 h
[16] = system: NCI/ADR-RES; test: Anticancer activity against Homo sapiens (human) NCI/ADR-RES cells after 48 hr by SRB assay
[17] = system: SN12C; test: Anticancer activity against Homo sapiens (human) SN12C cells after 48 hr by SRB assay
[18] = system: HCT-116; test: Growth inhibition of Homo sapiens (human) HCT116 cells at 10 uM after 48 hr by SRB assay; conditions: HCT-116, 48 h, read-out: GI
[19] = system: HCC 2998; test: Growth inhibition of Homo sapiens (human) HCC2998 cells at 10 uM after 48 hr by SRB assay; conditions: HCC 2998, 48 h, read-out: GI
[20] = system: NCI-H522; test: Growth inhibition of Homo sapiens (human) NCI-H522 cells at 10 uM after 48 hr by SRB assay; conditions: NCI-H522, 48 h, read-out: GI
[21] = system: Candida albicans; test: Antimicrobial activity against Candida albicans ATCC2091 assessed as diameter of growth inhibition zone at 1 mg/ml after 48 hr by agar cup diffusion method; conditions: ATCC2091, 48 h, read-out: IZ
[22] = system: HCT-116; test: Anticancer activity against Homo sapiens (human) HCT116 cells after 48 hr by SRB assay; conditions: HCT-116, 48 h
[23] = system: COLO 205; test: Anticancer activity against Homo sapiens (human) COLO205 cells after 48 hr by SRB assay; conditions: COLO 205, 48 h
[24] = system: NCI-H460; test: Anticancer activity against Homo sapiens (human) NCI-H460 cells after 48 hr by SRB assay; conditions: NCI-H460, 48 h
[25] = system: NCI-H522; test: Anticancer activity against Homo sapiens (human) NCI-H522 cells after 48 hr by SRB assay; conditions: NCI-H522, 48 h
[26] = system: NCI-H226; test: Anticancer activity against Homo sapiens (human) NCI-H226 cells after 48 hr by SRB assay; conditions: NCI-H226, 48 h
[27] = system: A549; test: Anticancer activity against Homo sapiens (human) A549/ATCC cells after 48 hr by SRB assay; conditions: A549, 48 h
[28] = system: Candida albicans; test: Antimicrobial activity against Candida albicans ATCC2091 assessed as growth inhibition after 48 hr by two-fold serial dilution method; conditions: ATCC2091, 48 h
[29] = system: 786-0; test: Anticancer activity against Homo sapiens (human) 786-0 cells after 48 hr by SRB assay; conditions: 786-0, 48 h
[30] = system: SK-OV-3; test: Anticancer activity against Homo sapiens (human) SKOV3 cells after 48 hr by SRB assay; conditions: SK-OV-3, 48 h
[31] = system: SNB-19; test: Growth inhibition of Homo sapiens (human) SNB19 cells at 10 uM after 48 hr by SRB assay; conditions: SNB-19, 48 h, read-out: GI
[32] = system: DU-145; test: Growth inhibition of Homo sapiens (human) DU145 cells at 10 uM after 48 hr by SRB assay; conditions: DU-145, 48 h, read-out: GI
[33] = system: M14; test: Growth inhibition of Homo sapiens (human) M14 cells at 10 uM after 48 hr by SRB assay; conditions: M14, 48 h, read-out: GI
[34] = system: TK-10; test: Growth inhibition of Homo sapiens (human) TK10 cells at 10 uM after 48 hr by SRB assay; conditions: TK-10, 48 h, read-out: GI
[35] = read-out: LC50 (the source's name)

For `Cc1c(C(N)=O)sc2nc(C)n(/N=c3\scc(-c4ccccc4)n3Cc3ccccc3)c(=O)c12`, the GI50 [1] was 4.26 µM, the TGI [1] was 83.2 µM and the CC50 [1, 35] was > 100 µM. For the same compound, the GI50 [2] was 3.56 µM, the TGI [2] was > 100 µM and the CC50 [2, 35] was > 100 µM. For the same compound, the GI50 [3] was 3.88 µM, the TGI [3] was 84.5 µM and the CC50 [3, 35] was > 100 µM. For the same compound, the GI50 [4] was 2.18 µM, the TGI [4] was > 100 µM and the CC50 [4, 35] was > 100 µM. For the same compound, the inhibition of growth at 10 µM [5] was 141%, the inhibition of growth at 10 µM [6] was 92.7% and the inhibition of growth at 10 µM [7] was 49.3%. It also gave an inhibition of growth at 10 µM [8] of 87.9%, an inhibition of growth at 10 µM [9] of 52.1% and an inhibition of growth at 10 µM [10] of 95.7%. For the same compound, the inhibition of growth at 10 µM [11] was 89.1%, the inhibition of growth at 10 µM [12] was 81.1% and the inhibition of growth at 10 µM [13] was 57%. The GI50 [14] was 3.25 µM, the TGI [14] was > 100 µM and the CC50 [14, 35] was > 100 µM. For the same compound, the GI50 [15] was 2.41 µM, the TGI [15] was 8.89 µM and the CC50 [15, 35] was > 100 µM. For the same compound, the GI50 [16] was 2.9 µM, the TGI [16] was 29.2 µM and the CC50 [16, 35] was > 100 µM. For the same compound, the GI50 [17] was 3.84 µM, the TGI [17] was > 100 µM and the CC50 [17, 35] was > 100 µM. For the same compound, the inhibition of growth at 10 µM [18] was 70.9%, the inhibition of growth at 10 µM [19] was 42.9% and the inhibition of growth at 10 µM [20] was 75.1%. For the same compound, the zone of inhibition at 1000 µg/mL [21] was 17 mm, the GI50 [22] was 2.13 µM and the TGI [22] was 10 µM. For the same compound, the CC50 [22, 35] was > 100 µM, the GI50 [23] was 2.39 µM and the TGI [23] was 7.32 µM. The CC50 [23, 35] was > 100 µM, the GI50 [24] was 2.65 µM and the TGI [24] was 7.34 µM. For the same compound, the CC50 [24, 35] was > 100 µM, the GI50 [25] was 1.73 µM and the TGI [25] was 7.23 µM. The CC50 [25, 35] was > 100 µM, the GI50 [26] was 3.72 µM and the TGI [26] was 67.9 µM. For the same compound, the CC50 [26, 35] was > 100 µM, the GI50 [27] was 3.79 µM and the TGI [27] was > 100 µM. For the same compound, the CC50 [27, 35] was > 100 µM, the MIC [28] was 125 µg/mL (≈ 256 µM) and the GI50 [29] was 3.82 µM. For the same compound, the TGI [29] was > 100 µM, the CC50 [29, 35] was > 100 µM and the GI50 [30] was 4.5 µM. For the same compound, the TGI [30] was > 100 µM, the CC50 [30, 35] was > 100 µM and the inhibition of growth at 10 µM [31] was 70.6%. For the same compound, the inhibition of growth at 10 µM [32] was 57.9%, the inhibition of growth at 10 µM [33] was 63.6% and the inhibition of growth at 10 µM [34] was 47.2%.
